Source: PMC10849753, “Antiproliferative activity of platinum(II) and copper(II) complexes containing novel biquinoxaline ligands” (Metallomics: Integrated Biometal Science, 2024)

What was measured:
Format in all cases: cell-based, human
HeLa cells [1] = assay: Apoptosis, TUNEL assay; settings: 50 and 100 μM, 24 h
Method: (§1) The sensitive U87 and HeLa cell lines, selected according to the results of the IC50 values of the examined Cu(II) and Pt(II) complexes, were seeded at a seeding cell number of 5 × 10^4 cells on the 12 mm round cover slips placed in the 24-well plate and incubated at 37°C and 5% CO2 for 24 h. The following day, the Cu(dpq)Cl2, Cu(dtq)Cl2, Pt(dpq)Cl2 and Pt(dtq)Cl2 complexes were freshly prepared and added at a range of 50 and 100 μM to the cell monolayers. After a 24 h incubation time, the cell monolayers were fixed with 4% paraformaldehyde for 15 min at room temperature and, then, the terminal deoxynucleotidyl transferase (TdT)-mediated dUTP nick end labeling (TUNEL) method was applied to detect the DNA damage associated with apoptosis. A commercial assay kit, In Situ Cell Death Detection Kit (Roche, #11767291910), was used for this purpose in accordance to the manufacturer's instructions. The experiment was repeated twice with the tested cell lines, and images were recorded with using a Leica DMI 6000 fluorescence microscope with 40× magnification.

U87 cells [2] = assay: Apoptosis, TUNEL assay; settings: U87, 50 and 100 μM, 24 h
Method: as §1

MDA231 cells = assay: MTT cell viability assay
Method: (§2) Cell culture growth conditions: Selected cancer cell lines from different origins, including human glioblastoma A172 (CRL-1620), LN229 (CRL-2611), U87 (HTB-14) cell lines, human cervix HeLa (ATCC, CCL-2), human breast MDA -231 (HTB-26), human prostate PC-3 (ATCC, CRL-1435), human lung A-549 (CCL-185), and non-cancer Chinese hamster ovary CHOK1 cell line (CCL61) (which was used as control) were purchased from American Type Culture Collection (ATCC, USA). These cultures were grown in Dulbecco's modified Eagle's medium-F12 (DMEM/F12, #D0547, Sigma-Aldrich) supplemented with 5% fetal bovine serum (#10500, Gibco) and 1% antibiotic-antimycotic (#15240, Gibco), and incubated at 37°C and 5% CO2. They were harvested and used for the following assays after reaching 70–80% confluency.
(§3) The used cell lines (A172, LN229, U87, HeLa, MDA-231, PC-3, A549, and CHO-K1) were harvested and seeded (6 × 10^3 cells/well) into the 96-well plates and incubated at 37°C and 5% CO2 for 24 h. After that, the synthesized Cu(II) and Pt(II) complexes, at a concentration range of 6.25 to 100 μM in DMEM-F12, were added to the cell monolayers and incubated at 37°C and 5% CO2 for 24, 48, and 72 h. The dose–response relationships of the synthesized complexes were determined by using an MTT colorimetric agent (3-[4,5-dimethylthiazol-2-yl]-2,5-diphenyltetrazolium bromide, #M5655, Sigma-Aldrich), which is reduced by the mitochondrial enzymes of the metabolically active live cells and converted into a purple formazan product. The MTT stock solution was later dissolved in a phosphate buffer solution (PBS, 5 mg/ml, w/v) and, then, 5 μg/ml of MTT in DMEM was added into each well and incubated at 37°C and 5% CO2 for 4 h. DMSO (#D 8418, Sigma-Aldrich), as a dissolving solution for formazan crystals, was added into each well and placed in a shaker for 2 h. The absorbance at a test wavelength of 570 nm and a reference wavelength of 630 nm was measured on a microplate reader.

HeLa cells [3] = assay: MTT cell viability assay
Method: as §2, §3

PC3 cells = assay: MTT cell viability assay
Method: as §2, §3

A549 cells = assay: MTT cell viability assay
Method: as §2, §3

LN229 cells = assay: MTT cell viability assay
Method: as §2, §3

U87 cells [4] = assay: MTT cell viability assay
Method: as §2, §3

A172 cells = assay: MTT cell viability assay
Method: as §2, §3

HeLa cells [5] = assay: Matrigel invasion analysis; settings: 6.25 and 12.5 μM, 24 h, vs negative control
Method: The analysis was completed with U87 and HeLa cell lines to assess the metastatic potential of tumor cells using transwell inserts with an 8 μm pore size polycarbonate membrane (Corning Costar, Cambridge, MA, USA) coated with 1/5 of Matrigel (Beckton Dickinson, Bedford, MA, USA) and air-dried at room temperature. After seeding the U87 and HeLa cell lines (3 × 10^5cells/insert), the complex concentrations were selected as 6.25 or 12.5 μM and incubated at 37°C in a humidified incubator with 5% CO2 for 24 h. The cell monolayers in the transwell inserts were fixed with ice-cold methanol and stained with 0.05% crystal violet for the analysis. The invasion of the cells to the basolateral side of the inserts was investigated using a light microscope with 40× magnification.

HeLa cells [6] = assay: In vitro scratch wound healing (cell migration); settings: 6.25 and 12.5 μM, 24, 48, and 72 h
Method: In vitro scratch wound healing experiments were carried out with HeLa cell lines (3 × 10^4 cells/insert), which were seeded into 6-well plates. When they reached 80–90% confluence, scratches were created using AutoScratch (BioTek) in a straight line. The same Cu(II) or Pt(II) complex concentrations (6.25 or 12.5 μM) were used and incubated in the presence of 5% CO2 at 37°C in a humidified incubator for 24, 48, and 72 h. Images were obtained at the beginning of the exposure (time 0), and repeated at the end of 24, 48, and 72 h incubation periods.

IC50 (HeLa cells [3]; 24 h exposure) [µM]	IC50 (HeLa cells [3]; 48 h exposure) [µM]	IC50 (HeLa cells [3]; 72 h exposure) [µM]	IC50 (PC3 cells; PC3, 24 h exposure) [µM]	IC50 (PC3 cells; PC3, 48 h exposure) [µM]	IC50 (PC3 cells; PC3, 72 h exposure) [µM]	IC50 (A549 cells; A549, 24 h exposure) [µM]	IC50 (A549 cells; A549, 48 h exposure) [µM]	IC50 (A549 cells; A549, 72 h exposure) [µM]	IC50 (U87 cells [4]; U87, 24 h exposure) [µM]	IC50 (U87 cells [4]; U87, 48 h exposure) [µM]	SMILES	apoptosis (DNA fragmentation, TUNEL) (HeLa cells [1])	apoptosis (DNA fragmentation, TUNEL) (U87 cells [2])	IC50 (MDA231 cells; MDA231, 24 h exposure) [µM]	IC50 (MDA231 cells; MDA231, 48 h exposure) [µM]	IC50 (MDA231 cells; MDA231, 72 h exposure) [µM]	IC50 (LN229 cells; LN229, 24 h exposure) [µM]	IC50 (LN229 cells; LN229, 48 h exposure) [µM]	IC50 (LN229 cells; LN229, 72 h exposure) [µM]	IC50 (A172 cells; A172, 24 h exposure) [µM]	other results
> 100	> 100	> 100	> 100	> 100	> 100	> 100	> 100	> 100	79.5 ± 26.4	5.49 ± 0.01	[Cl][Cu][Cl].c1ccc(-c2nc3ccc(-c4ccc5nc(-c6ccccn6)c(-c6ccccn6)nc5c4)cc3nc2-c2ccccn2)nc1 [Cu(tpbq)Cl2]	none of which induced any apoptosis	none of which induced any apoptosis	72.1 ± 26	> 100	> 100	> 100	> 100	> 100	> 100	IC50 (U87 cells [4]; U87, 72 h exposure): 13.5 ± 6.06 µM; IC50 (A172 cells; A172, 48 h exposure): > 100 µM; IC50 (A172 cells; A172, 72 h exposure): 92 ± 7.46 µM; anti-invasive effect (HeLa cells [5]): did not have any anti-invasive effect
67.5 ± 2.78	74.22 ± 0.45	65 ± 2.75	65.8 ± 5.35	75.5 ± 3.16	62.3 ± 4.02	73.5 ± 1.35	70.7 ± 4.09	66.9 ± 8.7	31.2 ± 0.43	2.95 ± 0.97	[Cl][Cu][Cl].c1csc(-c2nc3ccc(-c4ccc5nc(-c6cccs6)c(-c6cccs6)nc5c4)cc3nc2-c2cccs2)c1 [Cu(ttbq)Cl2]	none of which induced any apoptosis	apoptotic potential of the U87 cells was observed	20.6 ± 2.39	32.1 ± 1.05	41 ± 0.6	42 ± 14	36 ± 6.38	54 ± 3.1	69.44 ± 0.19	IC50 (U87 cells [4]; U87, 72 h exposure): 5.75 ± 0.03 µM; IC50 (A172 cells; A172, 48 h exposure): 63.9 ± 3.56 µM; IC50 (A172 cells; A172, 72 h exposure): 57.4 ± 13.7 µM; migration of HeLa cells toward the scratch zone (HeLa cells [6]): declined; anti-invasive effect (HeLa cells [5]): high anti-invasive effects
> 100	58 ± 26.9	42.9 ± 1.69	> 100	> 100	> 100	> 100	58.4 ± 5.35	40.3 ± 3.42	58.4 ± 11.8	34.7 ± 2.16	[Cl][Pt][Cl].c1ccc(-c2nc3ccc(-c4ccc5nc(-c6ccccn6)c(-c6ccccn6)nc5c4)cc3nc2-c2ccccn2)nc1 [Pt(tpbq)Cl2]	none of which induced any apoptosis	apoptotic potential of the U87 cells was observed	94.8 ± 2.57	> 100	99.4 ± 5.71	> 100	91.9 ± 49	83.9 ± 3.16	94.3 ± 12.3	IC50 (A172 cells; A172, 48 h exposure): 39.4 ± 15.8 µM; IC50 (A172 cells; A172, 72 h exposure): 73.67 ± 0.28 µM; migration of HeLa cells toward the scratch zone (HeLa cells [6]): declined; anti-invasive effect (HeLa cells [5]): high anti-invasive effects
88.9 ± 8.31	79.7 ± 24.2	> 100	> 100	> 100	> 100	95 ± 2.93	> 100	> 100	> 100	9.24 ± 4.16	[Cl][Pt][Cl].c1csc(-c2nc3ccc(-c4ccc5nc(-c6cccs6)c(-c6cccs6)nc5c4)cc3nc2-c2cccs2)c1 [Pt(ttbq)Cl2]	apoptosis on HeLa cells was only observed	none of which induced any apoptosis	85 ± 10.8	> 100	> 100	67.9 ± 16.3	44.8 ± 11.6	38.8 ± 1.46	93.5 ± 18.4	IC50 (U87 cells [4]; U87, 72 h exposure): 5.95 ± 1.68 µM; IC50 (A172 cells; A172, 48 h exposure): 65.5 ± 17.7 µM; IC50 (A172 cells; A172, 72 h exposure): 49.5 ± 5.73 µM; migration of HeLa cells toward the scratch zone (HeLa cells [6]): declined; anti-invasive effect (HeLa cells [5]): higher potency to prevent the invasion
